In ChEMBL document CHEMBL3351685, “Synthesis and quantitative structure-activity relationship (QSAR) analysis of some novel oxadiazolo[3,4-d]pyrimidine nucleosides derivatives as antiviral agents” (Bioorg Med Chem Lett, 2015):
The source made the active and inactive calls. The calls are words filed in the database; no cut-off is given here.

What was measured:
[1] = test system: WISH; assay: Cytotoxicity against human WISH cells; type: cell-based
[2] = test system: Vesicular stomatitis virus; assay: Antiviral activity against vesicular stomatitis virus infected in human WISH cells; type: functional; details: for EC50: read-out: ED50 (the source's name)
[3] = Selectivity index, ratio of toxic concentration for human WISH cells to ED50 for vesicular stomatitis virus infected in human WISH cells; type: toxicity, cell-based; details: read-out: Selectivity Index

| SMILES | Activity [1] [µmol/L] | EC50 [2] [µM] | selectivity ratio [3] | ED50 [2] |
| --- | --- | --- | --- | --- |
| CC(=O)OC[C@H]1O[C@@H](n2c(=O)[nH]c(=O)c3c2no[n+]3[O-])[C@H](OC(C)=O)[C@@H]1OC(C)=O | 1459 | 345 | – | – |
| O=c1[nH]cnc2c1ncn2[C@H]1CC[C@@H](CO)O1 [DIDANOSINE] | 2646 | 792 | 3.34 | – |
| CC(=O)OC[C@H]1O[C@@H](n2c(=O)n(C)c(=O)c3c2no[n+]3[O-])[C@H](OC(C)=O)[C@H]1OC(C)=O | 477 | – | – | inactive |
| CC(=O)OCCOCn1c(=O)[nH]c(=O)c2c1no[n+]2[O-] | 2083 | 651 | – | – |
| CC(=O)OC[C@H]1O[C@@H](n2c(=O)[nH]c(=O)c3c2no[n+]3[O-])[C@H](OC(C)=O)[C@H]1OC(C)=O | 387 | – | – | inactive |
| CC(=O)OC[C@H]1O[C@H](n2c(=O)n(C)c(=O)c3c2no[n+]3[O-])[C@@H](OC(C)=O)[C@@H]1OC(C)=O | 378 | – | – | inactive |
| CCn1c(=O)c2c(no[n+]2[O-])n([C@@H]2O[C@H](COC(C)=O)[C@@H](OC(C)=O)[C@H](OC(C)=O)[C@H]2OC(C)=O)c1=O | 1345 | 1210 | – | – |
| CCn1c(=O)c2c(no[n+]2[O-])n([C@@H]2O[C@H](COC(C)=O)[C@@H](OC(C)=O)[C@H]2OC(C)=O)c1=O | 377 | 1230 | – | – |
| Cn1c(=O)c2c(no[n+]2[O-])n([C@@H]2O[C@H](COCc3ccccc3)[C@@H](OCc3ccccc3)[C@H]2OCc2ccccc2)c1=O | 1055 | 473 | – | – |
| O=c1[nH]c(=O)n([C@@H]2O[C@H](CO)[C@@H](O)[C@H]2O)c2no[n+]([O-])c12 | 2095 | 78 | 26.9 | – |
| O=c1[nH]c(=O)n([C@@H]2O[C@H](COCc3ccccc3)[C@@H](OCc3ccccc3)[C@H]2OCc2ccccc2)c2no[n+]([O-])c12 | 650 | 736 | – | – |
| CCn1c(=O)c2c(no[n+]2[O-])n([C@@H]2O[C@H](COCc3ccccc3)[C@@H](OCc3ccccc3)[C@H]2OCc2ccccc2)c1=O | 1026 | 498 | – | – |
| CCn1c(=O)c2c(no[n+]2[O-])n([C@@H]2O[C@@H](COC(C)=O)[C@H](OC(C)=O)[C@H]2OC(C)=O)c1=O | 20 | – | – | inactive |
| CC(=O)OC[C@@H]1O[C@@H](n2c(=O)n(C)c(=O)c3c2no[n+]3[O-])[C@H](OC(C)=O)[C@H]1OC(C)=O | 300 | 135 | – | – |
| CC(=O)OC[C@H]1O[C@H](n2c(=O)[nH]c(=O)c3c2no[n+]3[O-])[C@@H](OC(C)=O)[C@@H]1OC(C)=O | 398 | 691 | – | – |
| CCn1c(=O)c2c(no[n+]2[O-])n([C@H]2O[C@H](COC(C)=O)[C@@H](OC(C)=O)[C@@H]2OC(C)=O)c1=O | 1411 | 574 | – | – |
| Nc1nc2c(ncn2COCCO)c(=O)[nH]1 [ACYCLOVIR] | 3414 | 1410 | 2.4 | – |
| CCn1c(=O)c2c(no[n+]2[O-])n([C@@H]2O[C@H](COC(C)=O)[C@H](OC(C)=O)[C@H]2OC(C)=O)c1=O | 356 | 1040 | – | – |
| Cn1c(=O)c2c(no[n+]2[O-])n([C@@H]2O[C@H](COCc3ccccc3)[C@@H](OCc3ccccc3)[C@@H]2F)c1=O | 10 | 1500 | – | – |
| CC(=O)OCCOCn1c(=O)n(C)c(=O)c2c1no[n+]2[O-] | 2077 | 650 | – | – |
| CC(=O)OC[C@@H]1O[C@@H](n2c(=O)[nH]c(=O)c3c2no[n+]3[O-])[C@H](OC(C)=O)[C@H]1OC(C)=O | 380 | 154 | – | – |
| CCn1c(=O)c2c(no[n+]2[O-])n(COCCOC(C)=O)c1=O | 408 | – | – | inactive |
| CCn1c(=O)c2c(no[n+]2[O-])n(COC(COC(C)=O)COC(C)=O)c1=O | 1475 | 651 | – | – |
| O=c1[nH]c(=O)n(COCCO)c2no[n+]([O-])c12 | 2561 | 636 | – | – |
| O=c1[nH]c(=O)n(COC(CO)CO)c2no[n+]([O-])c12 | 2279 | 555 | – | – |
| CC(=O)OC[C@H]1O[C@@H](n2c(=O)[nH]c(=O)c3c2no[n+]3[O-])[C@H](OC(C)=O)[C@@H](OC(C)=O)[C@@H]1OC(C)=O | 1300 | – | – | inactive |
| CC(=O)OC[C@H]1O[C@@H](n2c(=O)n(C)c(=O)c3c2no[n+]3[O-])[C@H](OC(C)=O)[C@@H]1OC(C)=O | 1460 | 346 | – | – |
